These results are taken from patent US20100021885A1, “REAGENT SETS AND GENE SIGNATURES FOR NON-GENOTOXIC HEPATOCARCINOGENICITY” (priority 2006, published 2010).

In series [1] the test system is livers from treated male Sprague-Dawley rats. The procedure:
Briefly, in vivo short-term repeat dose rat studies were conducted on over 580 test compounds, including marketed and withdrawn drugs, environmental and industrial toxicants, and standard biochemical reagents. Rats (three per group) were dosed daily at either a low or high dose. […] Animals were necropsied on days 0.25, 1, 3, and 5 or 7. Up to 13 tissues (e.g., liver, kidney, heart, bone marrow, blood, spleen, brain, intestine, glandular and nonglandular stomach, lung, muscle, and gonads) were collected for histopathological evaluation and microarray expression profiling on the Amersham CodeLink™ RU1 platform (also referred to herein as “CodeLink Uniset™ Rat 1 Bioarray”). In addition, a clinical pathology panel consisting of 37 clinical chemistry and hematology parameters was generated from blood samples collected on days 3 and 5.
The remaining 21 NGTC chemicals and 26 NC chemicals were reserved for independent validation of the signature. Each chemical was evaluated in a short term repeat dose in vivo study in male Sprague-Dawley rats (n=3/group). The livers from treated and control rats were collected after 1, 3 and 5 days of dosing and RNA was extracted for gene expression profiling. Gene expression changes in treated animals were compared to suitably matched controls and represented as average log10 ratios for each treatment group. Since the development of tumors is a long term multi-step process, the 100 training set chemicals were profiled at the latest time point in order to capture gene expression changes that were likely to be reflective of repeat dose treatment effects that contribute to carcinogenicity and not reflective of an initial stimulus following a single dose that may be transient in nature.
Male Sprague-Dawley (Crl:CD®(SD)(IGS)BR) rats (weight matched, 7 to 8 weeks of age and averaging 200 to 250 g) were purchased from Charles River Laboratories (Portage, Mich.) and housed individually in hanging, stainless steel, wire-bottom cages in a temperature (66-77° F.), light (12-hour dark/light cycle) and humidity (30-70%) controlled room. […] Housing and treatment of the animals were in accordance with regulations outlined in the USDA Animal Welfare Act (9 CFR Parts 1, 2 and 3). Animals were assigned to groups such that mean body weights were within 10% of the mean vehicle control group. Test articles were administered either orally (10 ml of corn oil/kg body weight) or by intra-peritoneal injection (5 ml of saline/kg body weight), as indicated. Animals were dosed once daily starting on day 0, and necropsied 24 hrs after the last dose, as indicated. An equivalent number of time- and vehicle-matched control rats were treated concurrently.
Briefly, liver samples from 3 rats were chosen from each treatment and control group for gene expression analysis on the Codelink Uniset™ Rat 1 Bioarray (GE Healthcare Bio-Sciences Corp., Piscataway, N.J.). A complete list of probes on the array is provided on the Amersham Biosciences web site (www.amershambiosciences.com). Log transformed signal data for all probes were array-wise normalized used Array Qualifier (Novation Biosciences, Palo Alto, Calif.), a non-linear centralization normalization procedure adapted for the CodeLink microarray platform. Log10 ratios for each experimental group are computed as the difference between the average of the logs of the normalized experimental signals and the average of the logs of the normalized control signals for each gene.
where S is the scalar product and b is the bias term. Evaluation of S for a test experiment across the n genes in the signature determines what side of the hyperplane in m dimensional space the test experiment lies, and thus the result of the classification. Experiments with scalar products greater than 0 are considered positive for non-genotoxic hepatocarcinogenicity.

Series [2] deals with liver of rats. The following applies: cited from earlier work.
[3] abbreviates: male, Sprague-Dawley, rat, in vivo.
Where [4] appears, read: test chemicals, literature class NGTC or NC.
Where [5] appears, read: maximum of days 1, 3, 5, greater than zero = classified non-genotoxic hepatocarcinogen.
Setting [6] is: 37 gene signature, maximum scalar product over days 1, 3 and 5, scalar product greater than zero = positive.

Like-named read-outs stand apart in the source and are kept apart here.

Take `CC[C@H](C)C(=O)O[C@H]1C[C@@H](C)C=C2C=C[C@H](C)[C@H](CC[C@@H]3C[C@@H](O)CC(=O)O3)[C@H]21` [LOVASTATIN]: in series [1] (setting [3]), the “Max (maximum scalar product observed over the multiple time points)” value was 1.07. Also, the Class result in series [2] (setting [4]) was “NGTC”.
As for `CCN(CC)N=O` [N-nitrosodiethylamine, reference compound], in series [1] (male, rat, in vivo), the “Day 1 (scalar product)” value was −2.17, the “Day 3 (scalar product)” value is −1.83, the “Day 5 (scalar product)” value is on record as −1.41 and the “Max (maximum scalar product observed over the multiple time points)” value was −1.41. Besides, the “signature prediction for non-genotoxic hepatocarcinogenicity” value in series [1] (rat, in vivo) is on record as “negative”. Besides, in series [2] (rat, in vivo), the Class result was “GTC”.
Regarding `C[C@]12Cc3c[nH]nc3C[C@@H]1CC[C@@H]1[C@@H]2CC[C@@]2(C)[C@H]1CC[C@]2(C)O` [STANOZOLOL], the “Max (maximum scalar product observed over the multiple time points)” value in series [1] (setting [5]) is reported as 0.54. Moreover, in series [2] (setting [4]), the Class result is given as “NGTC”.
With `CC(=O)O[C@]1(C(C)=O)CC[C@H]2[C@@H]3C=C(Cl)C4=CC(=O)[C@@H]5C[C@@H]5[C@]4(C)[C@H]3CC[C@@]21C` [CYPROTERONE ACETATE], the “Max (maximum scalar product observed over the multiple time points)” value in series [1] (setting [3]) turned out to be 1.16. Further, the Class entry in series [2] (setting [4]) is recorded as “NGTC”.
On to `CCCCC(CC)COC(=O)c1ccccc1C(=O)OCC(CC)CCCC` (stereo not shown) [BIS(2-ETHYLHEXYL)PHTHALATE], for which, in series [1] (rat, in vivo), the “Day 1 (scalar product)” value worked out at 0.47, the “Day 3 (scalar product)” value was found to be 1.04, the “Day 5 (scalar product)” value was −0.09 and the “Max (maximum scalar product observed over the multiple time points)” value is 1.04. Besides, the Class entry in series [2] (rat, in vivo) is on record as “NGTC”.
Take `OC(Cn1cncn1)(Cn1cncn1)c1ccc(F)cc1F` [FLUCONAZOLE]: the “Max (maximum scalar product observed over the multiple time points)” value in series [1] (setting [3]) is on record as 3.63. Further, the Class entry in series [2] (setting [4]) is listed as “NGTC”.
On to `C[C@]12CC[C@H]3[C@@H](CCC4=CC(=O)CC[C@@]43C)[C@@H]1CC[C@@H]2O` [TESTOSTERONE], for which, in series [1] (male, rat, in vivo), the “Day 1 (scalar product)” value came out at 0.25, the “Day 3 (scalar product)” value turned out to be 0.45, the “Day 5 (scalar product)” value was −0.63 and the “Max (maximum scalar product observed over the multiple time points)” value was 0.45. The Class result in series [2] (rat, in vivo) is on record as “NGTC”.
Consider `CC(=O)S[C@@H]1CC2=CC(=O)CC[C@]2(C)[C@H]2CC[C@@]3(C)[C@@H](CC[C@@]34CCC(=O)O4)[C@H]12` [SPIRONOLACTONE], for which the “Max (maximum scalar product observed over the multiple time points)” value in series [1] (setting [3]) is reported as 0.37. In series [2] (setting [4]), the Class entry is reported as “NGTC”.
On to `COC(=O)Nc1nc2ccc([S+]([O-])c3ccccc3)cc2[nH]1` (stereo not shown) [OXFENDAZOLE], for which the “Max (maximum scalar product observed over the multiple time points)” value in series [1] (setting [3]) was 0.32. Further, the Class result in series [2] (setting [4]) is on record as “NGTC”.
Consider `CC(C)(Oc1ccc(CCNC(=O)c2ccc(Cl)cc2)cc1)C(=O)O` [BEZAFIBRATE], for which, in series [1] (setting [3]), the “Max (maximum scalar product observed over the multiple time points)” value turned out to be 2.72. For the same compound, in series [2] (setting [4]), the Class result is reported as “NGTC”.
On to `CC/C(=C(/CC)c1ccc(O)cc1)c1ccc(O)cc1` [DIETHYLSTILBESTROL], for which the “Max (maximum scalar product observed over the multiple time points)” value in series [1] (setting [3]) worked out at 2.75. In addition, the Class entry in series [2] (setting [4]) is “NGTC”.
As for `CC[C@]1(O)CC[C@H]2[C@@H]3CCC4=CCCC[C@@H]4[C@H]3CC[C@@]21C` [ETHYLESTRENOL], the “Max (maximum scalar product observed over the multiple time points)” value in series [1] (setting [5]) was found to be 2.25. Moreover, the Class result in series [2] (setting [4]) is on record as “NGTC”.
In the case of `ClC(Cl)(Cl)Cl` [carbon tetrachloride, reference compound], the “signature prediction for non-genotoxic hepatocarcinogenicity” value in series [1] (setting [6]) was “positive”. The “Max (maximum scalar product observed over the multiple time points)” value in series [1] (setting [5]) turned out to be 0.50. For the same compound, in series [2] (setting [4]), the Class entry was “NGTC”.
`COC(=O)Nc1nc2ccc(Sc3ccccc3)cc2[nH]1` [FENBENDAZOLE]: the “Max (maximum scalar product observed over the multiple time points)” value in series [1] (setting [5]) is 0.17. Besides, the Class result in series [2] (setting [4]) is listed as “NGTC”.
Turning to `CC(=O)Nc1ccc2c(c1)Cc1ccccc1-2` [2-acetylaminofluorene, reference compound], the “signature prediction for non-genotoxic hepatocarcinogenicity” value in series [1] (setting [6]) is reported as “weakly positive”. Besides, the “scalar product (SP)” value in series [1] (37 gene signature, maximum scalar product over the time points) amounted to 0.03. For the same compound, in series [1] (setting [5]), the “Max (maximum scalar product observed over the multiple time points)” value is 0.03. In addition, the Class entry in series [2] (genotoxic hepatocarcinogens section) was “GTC”.
Take `ClC(Cl)Cl` [chloroform, reference compound]: in series [1] (male, rat, in vivo), the “Day 1 (scalar product)” value stood at 1.50, the “Day 3 (scalar product)” value worked out at 0.74, the “Day 5 (scalar product)” value came out at 0.27 and the “Max (maximum scalar product observed over the multiple time points)” value worked out at 1.50. Besides, in series [2] (rat, in vivo), the Class entry is on record as “NGTC”.
In the case of `NC(=O)N1c2ccccc2C=Cc2ccccc21` [CARBAMAZEPINE], the “Max (maximum scalar product observed over the multiple time points)” value in series [1] (setting [3]) was −0.35. In addition, in series [2] (setting [4]), the Class entry is given as “NGTC”.
For the compound `O=c1cc(-c2ccccc2)oc2ccc3ccccc3c12` [BETA-NAPHTHOFLAVONE], in series [1] (setting [5]), the “Max (maximum scalar product observed over the multiple time points)” value amounted to 0.81. For the same compound, the Class entry in series [2] (setting [4]) was “NGTC”.
Regarding `NN` [hydrazine, reference compound], in series [1] (male, rat, in vivo), the “Day 1 (scalar product)” value is −0.10, the “Day 3 (scalar product)” value was −1.31, the “Day 5 (scalar product)” value is reported as −1.48 and the “Max (maximum scalar product observed over the multiple time points)” value is listed as −0.10. In addition, the “signature prediction for non-genotoxic hepatocarcinogenicity” value in series [1] (rat, in vivo) is “negative”. The Class entry in series [2] (rat, in vivo) is “GTC”.
